Data from paper PMC9413440, “An Iterative Approach Guides Discovery of the FabI Inhibitor Fabimycin, a Late-Stage Antibiotic Candidate with In Vivo Efficacy against Drug-Resistant Gram-Negative Infections” (ACS Central Science, 2022).
Where two headings read alike, the source gives them in different places.

Assays:
[1] = test system: Pseudomonas aeruginosa; test: MIC, Pseudomonas aeruginosa strains; type: cell-based
Description: II. Materials and Methods for Biological Experiments
S. aureus ATCC 29213 and E. coli MG1655 were obtained from the American Type Culture Collection (ATCC). E. coli BW25113 and E. coli JW5503 were obtained from the Keio Collection. AR-bank strains were obtained from the Centers for Disease Control and Prevention and FDA Antibiotic Resistance Isolate Bank.
Antimicrobial susceptibility tests
Susceptibility testing was performed in biological triplicate, unless noted otherwise, using the micro-dilution broth method as outlined by the Clinical and Laboratory Standards Institute. Bacteria were cultured with cation-adjusted Mueller Hinton broth (Sigma Aldrich, catalogue number: 90922). […]
Error bars represent the standard error of the mean of three biological replicates. All compounds evaluated in biological assays were ≥95% pure.

[2] = test system: E. coli MG1655; test: Selection of resistant mutants, mutant prevention concentration; type: cell-based, Escherichia coli; settings: 32x MIC, 0 colonies
Description: (§1) Selection of resistant mutants
(§2) Resistant mutants were generated using the large inoculum method. Briefly, S. aureus 29213, E. coli MG1655, and A. baumannii 19606 (~1 x 1010 CFUs) was plated on 100-mm plates (E. coli and A. baumannii) or 150-mm plates (S. aureus) of MH agar containing either 128, 64, or 32 µg/mL fabimycin (for gram-negatives) or 0.125, 0.062, and 0.031 µg/mL fabimycin (for S. aureus). Plates were incubated at 37 °C for 48 h and counted for the presence of colony forming units.
(§3) Glycerol stocks of selected colonies were made, and resistant colonies confirmed by growing on agar plates containing the same concentration of fabimycin that they were generated at.
(§4) Sequencing of bacterial fabI
(§5) The FabI gene was amplified by PCR. Fabimycin-resistant colonies were picked and diluted in 100 µL sterile, nuclease-free H2O. […] A 10 µL portion of PCR reaction mixture was analyzed by agarose gel electrophoresis to confirm the single 1.4-kilobase pair product. […]
(§6) Candidate drugs were incubated with plasma and parent drug levels were monitored at various time points (generally t=0, 10, 20, 30, and 60 minutes) to determine the drug’s half-life in the presence of the chosen system. […] The supernatant was collected after centrifugation, and the sample analyzed by LC-MS where the percentage of compound remaining is plotted vs time to determine the drug’s half-life. […]

[3] = type: in vitro ADME
Description: as §1, §2, §3, §4, §5, §6

With `Cc1c(CN(C)C(=O)/C=C/c2cnc3c(c2)CC[C@H](N)C(=O)N3)oc2ccccc12` [fabimycin] the MIC ([1]; P. aeruginosa AR-0229) was over 128 µg/mL, the MIC ([1]; P. aeruginosa AR-0230) was over 128 µg/mL and the MIC ([1]; P. aeruginosa AR-0231) was over 128 µg/mL. It also gave an MIC ([1]; P. aeruginosa AR-0233) of over 128 µg/mL, an MIC ([1]; P. aeruginosa AR-0234) of over 128 µg/mL and an MIC ([1]; P. aeruginosa AR-0235) of over 128 µg/mL. It also gave an MIC ([1]; P. aeruginosa AR-0609) of over 128 µg/mL, an MIC ([1]; P. aeruginosa AR-0610) of over 128 µg/mL and an MIC ([1]; Pseudomonas aeruginosa, ATCC27853, P. aeruginosa ATCC 27853, read-out: MIC) of over 128 µg/mL. The MIC ([1]; Pseudomonas aeruginosa, P. aeruginosa AR-0232, read-out: MIC) was over 128 µg/mL, the “mutant prevention concentration (MPC)” value [2] was 64 µg/mL and the plasma protein binding [3] was “lower plasma protein binding relative to Debio-1452”.
